Measurements taken from article PMC7072606, “Discrimination of Naturally-Occurring 2-Arylbenzofurans as Cyclooxygenase-2 Inhibitors: Insights into the Binding Mode and Enzymatic Inhibitory Activity” (Biomolecules, 2020).

Target: T1, bovine COX-2 (Bos taurus, UniProt O62698)
T1 sequence (O62698 18-604): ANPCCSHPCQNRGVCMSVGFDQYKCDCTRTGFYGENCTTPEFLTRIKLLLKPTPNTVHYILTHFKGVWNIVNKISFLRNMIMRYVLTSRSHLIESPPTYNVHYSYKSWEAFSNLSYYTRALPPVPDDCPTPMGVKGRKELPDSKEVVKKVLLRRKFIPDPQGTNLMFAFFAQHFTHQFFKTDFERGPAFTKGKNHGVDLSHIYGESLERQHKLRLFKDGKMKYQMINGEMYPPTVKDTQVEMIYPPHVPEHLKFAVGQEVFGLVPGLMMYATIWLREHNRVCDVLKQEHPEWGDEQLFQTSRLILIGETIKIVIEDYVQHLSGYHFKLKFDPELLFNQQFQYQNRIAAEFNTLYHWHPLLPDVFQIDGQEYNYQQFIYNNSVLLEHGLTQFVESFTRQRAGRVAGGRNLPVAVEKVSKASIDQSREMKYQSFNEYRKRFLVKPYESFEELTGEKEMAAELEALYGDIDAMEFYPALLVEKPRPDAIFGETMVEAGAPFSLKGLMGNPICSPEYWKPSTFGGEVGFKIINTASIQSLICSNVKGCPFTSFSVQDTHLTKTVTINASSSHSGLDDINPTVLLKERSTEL
Experiment: COX-2 inhibition assay, enzyme immunoassay (EIA) kit
Type: biochemical
Details: in-vitro
Procedure: The ability of selected compounds to inhibit bovine COX-2 was determined using an enzyme immunoassay (EIA) kit (Cayman Chemical Company, Ann Arbor, MI, USA), according to the reported method. The activity was expressed as half-maximal inhibitory concentrations, IC50 (in μM), obtained after non-linear regression, using the program GraphPad Prism version 5.00 (GraphPad Software, San Diego, CA, USA).

In the case of salvianolic acid B [Compound 51], the IC50 is reported as 10.5 µM.
